{"source": "patent US20060206946A1", "about": "“Method of disrupting heme transport in nematodes and of modelling and evaluating eukaryotic heme transport” (priority 2005, published 2006)", "assay_in_all_cases": "Growth of heme resistant mutant in CeHR medium", "type_in_all_cases": "in vivo, Caenorhabditis elegans", "key": {"[1]": {"test_system": "C. elegans mutant IH728", "method": "(§1) To further increase the stringency of our genetic screen we split the contents from each 800 μM hemin selection flasks into two flasks containing either 800 μM or 1000 μM hemin. This allowed us to use another tier of positive selection to identify mutants with greater resistance to heme toxicity. Mutants from each flask were isolated and treated as a separate entity by giving an identification number based on the Genetic Nomenclature Guidelines used for C. elegans (http://biosci.umn.edu/CGC/Nomenclature/nomenguid.htm). To eliminate EMS-induced spurious mutations that could result in false positive, the mutants were outcrossed to wild-type N2 males. After five outcrosses, which replaces ˜97% of the mutant genome, mutants that bred true were selected for further analysis. Using this procedure, we isolated 13 individual mutants that were resistant to heme toxicity. These mutants were further characterized by analyzing Mendelian segregation ratios, X-linkage, phenotype penetrance, generation times, brood size, and their ability to grow under low hemin. […] This observation was surprising because we anticipated that high heme-resistant mutants will grow poorly under low heme. Based on the mutant's growth profile at low and high heme levels, we broadly categorized them into three phenotypic classes: class A, class B and class C (FIG. 13). These “phenoclusters” have the following growth phenotype: (a) three mutants IH728, IH938, IH731 show with robust growth under low and high (≧800 μM heme (FIG. 13B), (b) one mutant IH828 show exceptional growth under low heme, moderate growth at ≦800 μM heme, and no growth at 1000 μM hemin (FIG. 13C), and (c) six mutants IH921, IH11058, IH1068n, IH1068d, IH1048, and IH718 that show moderate growth under high heme (≦800 μM), but normal growth under low heme (FIG. 13D). By classifying these mutants into phenoclusters, we can focus our efforts on the phenotypic datasets to map the molecular networks and pathways involved in heme dependent processes. For instance, mutants in a cluster may have mutations within the same gene or in multiple genes but within the same pathway.\n(§2) Worm Culture and Growth Assays. Free-living worms were cultured in CeHR axenic liquid medium (Dr. Eric Clegg, Personal Communication). […] CeHR medium was modified (henceforth called mCeHR) to eliminate all sources of exogenously added heme; basal growth medium comprised 20 μM hemin chloride (Frontier Scientific, Logan, Utah) and 150 μM of ferrous ammonium sulfate (Sigma Chemicals). Worm strains were grown in mCeHR medium under aerobic conditions in tissue culture flasks at 20° C. ˜3.7×10^6 worms were routinely obtained after 3.5 to 4 days in a T75 flask with 30 ml basal medium from an initial inoculum of −1.5×10^5 worms. For initial culturing of worms in axenic media, three generations of worms were sequentially bleached (1.1% bleach/0.55 M NaOH) to eliminate any contaminating bacterial carryover from agar plates. In all dose-response experiments, worms were growth synchronized by treating the gravid hermaphrodite worms with bleach to dissolve adult worms. The eggs, resistant to bleach, were liberated from the carcasses and extensively washed with M9 buffer followed by overnight hatching in M9 buffer to synchronize growth. By harvesting at appropriate time intervals, synchronous larval stages and adult staged worms were collected for experimental manipulations. Identical numbers of synchronized L1 larvae were inoculated into media with different heme concentrations in 12- or 24-well culture plates. Worm growth was monitored each day and an aliquot was obtained for counting by microscopy usually at days 3, 6, and 9. The worms in each well were counted twice and each growth condition was analyzed in triplicate. P values for statistical significance were calculated utilizing a one-way ANOVA with Student-Newman-Keuls multiple comparison test using GraphPad Instat version 3.01. […]"}, "[2]": {"test_system": "C. elegans mutant IH731", "method": "as §1, §2"}, "[3]": {"test_system": "C. elegans mutant IH828", "method": "as §1, §2"}, "[4]": {"test_system": "C. elegans mutant IH938", "method": "as §1, §2"}, "[5]": {"conditions": "20 μM hemin, average in 24 well plates"}}, "note": "Entries after “also recorded” stand apart in the source; their conditions may differ.", "data": [{"substance": "hemin chloride", "values": [{"measurement": "Generation time (Days) 20 μM", "setting": "[1]; 20 μM hemin", "result": 3.5, "unit": "days"}, {"measurement": "brood size 20 μM", "setting": "[1]; [5]", "result": 53}, {"measurement": "Generation time (Days) 800 μM", "setting": "[1]; 800 μM hemin", "result": 4, "unit": "days"}, {"measurement": "Generation time (Days) 20 μM", "setting": "[2]; 20 μM hemin", "result": 3.5, "unit": "days"}, {"measurement": "brood size 20 μM", "setting": "[2]; [5]", "result": 53}, {"measurement": "Generation time (Days) 800 μM", "setting": "[2]; 800 μM hemin", "result": 4, "unit": "days"}, {"measurement": "resistance of IH828", "setting": "[3]; 800 μM hemin", "result": "moderately resistant"}, {"measurement": "growth of IH828", "setting": "[3]; 1000 μM hemin", "result": "no growth; also recorded: does not grow"}, {"measurement": "Generation time (Days) 20 μM", "setting": "[3]; IH828, 20 μM hemin", "result": 3.5, "unit": "days"}, {"measurement": "brood size 20 μM", "setting": "[3]; IH828, 20 μM hemin, average in 24 well plates", "result": 67}, {"measurement": "Generation time (Days) 800 μM", "setting": "[3]; IH828, 800 μM hemin", "result": 4, "unit": "days"}, {"measurement": "Generation time (Days) 20 μM", "setting": "[4]; 20 μM hemin", "result": 3.5, "unit": "days"}, {"measurement": "brood size 20 μM", "setting": "[4]; [5]", "result": 72}, {"measurement": "Generation time (Days) 800 μM", "setting": "[4]; 800 μM hemin", "result": 4, "unit": "days"}]}]}
